In ChEMBL document CHEMBL2040811, “Synthesis and biological evaluation of new homocamptothecin analogs” (Eur J Med Chem, 2012):
pIC50: −log10 of the molar value. Calls of active or inactive are those of the source. No cut-off for these calls is given here.

Tests used:
[1] = Stability of the compound assessed as retention of lactone group in phosphate buffer at pH 7 after 8 hrs by HPLC analysis; format: physicochemical; details: for remaining at 8 h: phosphate buffer, pH 7, read-out: Stability; for Stability: buffer, pH 7, 8 h
[2] = Stability of the compound assessed as retention of lactone group at pH 7 after 8 hrs in presence of human serum albumin by HPLC analysis; format: ADME; details: for remaining at 8 h: human serum albumin solution, pH 7, read-out: Stability; for Stability: buffer, pH 7, 8 h
[3] = system: A549; test: Cytotoxicity against human A549 after 72 hrs by SRB assay; format: functional, cell-based; details: A549, 72 h
[4] = system: HCT-116; test: Cytotoxicity against human HCT116 after 72 hrs by SRB assay; format: functional, cell-based; details: HCT-116, 72 h
[5] = molecular target: T1, DNA topoisomerase 1 (Homo sapiens) (UniProt P11387); test: Inhibition of topo 1-mediated relaxation of supercoiled pBR322 at 10 to 100 uM after 30 mins using ethidium bromide by agarose-gel electrophoresis
T1 sequence (whole entry): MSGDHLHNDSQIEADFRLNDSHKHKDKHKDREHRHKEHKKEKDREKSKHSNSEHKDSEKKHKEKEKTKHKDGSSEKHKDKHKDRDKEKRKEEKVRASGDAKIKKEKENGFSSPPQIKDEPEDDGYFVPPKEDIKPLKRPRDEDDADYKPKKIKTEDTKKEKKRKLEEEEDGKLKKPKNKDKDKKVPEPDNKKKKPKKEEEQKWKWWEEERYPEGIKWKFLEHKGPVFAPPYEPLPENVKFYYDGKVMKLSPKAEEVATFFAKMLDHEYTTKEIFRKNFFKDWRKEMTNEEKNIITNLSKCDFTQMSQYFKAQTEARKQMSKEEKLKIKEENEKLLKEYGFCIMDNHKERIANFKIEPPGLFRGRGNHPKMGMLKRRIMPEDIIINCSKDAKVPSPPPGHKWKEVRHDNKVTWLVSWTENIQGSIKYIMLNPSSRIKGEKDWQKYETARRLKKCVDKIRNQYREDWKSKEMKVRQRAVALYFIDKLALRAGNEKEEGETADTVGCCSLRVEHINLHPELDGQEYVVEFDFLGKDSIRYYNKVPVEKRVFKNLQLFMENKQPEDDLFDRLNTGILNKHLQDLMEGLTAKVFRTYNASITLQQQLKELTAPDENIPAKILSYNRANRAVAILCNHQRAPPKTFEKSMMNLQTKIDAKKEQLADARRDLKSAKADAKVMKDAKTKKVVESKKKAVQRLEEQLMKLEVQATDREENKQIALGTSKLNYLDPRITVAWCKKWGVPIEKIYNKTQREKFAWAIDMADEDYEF

SMILES | remaining at 8 h [1] [%] | remaining at 8 h [2] [%] | pIC50 [3] | pIC50 [4] | Stability [1] | inhibition [5] | Stability [2]
CC[C@@]1(O)C(=O)OCc2c1cc1n(c2=O)Cc2cc3ccccc3nc2-1 [CAMPTOTHECIN] | < 40 | 20 | 7.47 | 7.64 |  |  | 
CC[C@]1(O)c2cc3n(c(=O)c2COC(=O)[C@@H]1OC(C)=O)Cc1cc2cc4c(cc2nc1-3)OCO4 |  |  | 8.92 | 8.68 | Stable | Active | Stable
CC[C@@]1(O)C(=O)OCc2c1cc1n(c2=O)Cc2cc3cc(O)ccc3nc2-1 [HYDROXYCAMPTOTHECIN] |  |  | 7.47 | 7.51 |  | Active | 
CC[C@]1(O)c2cc3n(c(=O)c2COC(=O)[C@@H]1O)Cc1cc2ccccc2nc1-3 |  |  | 7.77 | 7.31 | Stable | Active | Stable
CC[C@]1(O)c2cc3n(c(=O)c2COC(=O)[C@@H]1O)Cc1cc2cc4c(cc2nc1-3)OCCO4 |  |  | 8.54 | 8.47 |  | Active | 
CCc1c2c(nc3ccc(O)cc13)-c1cc3c(c(=O)n1C2)COC(=O)[C@]3(O)CC |  |  |  |  |  | Active | 
CC[C@]1(O)c2cc3n(c(=O)c2COC(=O)[C@@H]1O)Cc1cc2cc4c(cc2nc1-3)OCO4 |  |  | 8.51 | 8.51 |  | Active | 
CC[C@]1(O)c2cc3n(c(=O)c2COC(=O)[C@@H]1OC(C)=O)Cc1cc2cc4c(cc2nc1-3)OCCO4 | 90 | 55 | 8.34 | 8.31 |  | Active | 
CC[C@]1(O)c2cc3n(c(=O)c2COC(=O)[C@@H]1OC(C)=O)Cc1cc2ccccc2nc1-3 |  |  | 7.31 | 7.85 | Stable | Active | Stable
CC[C@]1(O)c2cc3n(c(=O)c2COC(=O)[C@@H]1OC(C)=O)Cc1cc2cc(OC)ccc2nc1-3 |  |  | 8.33 | 8.36 |  | Active | 
CC[C@]1(O)c2cc3n(c(=O)c2COC(=O)[C@@H]1O)Cc1cc2cc(OC)ccc2nc1-3 |  |  | 8.32 | 7.97 |  | Active | 
